From ChEMBL document CHEMBL1201862, “PubChem BioAssay data set” (2004)
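Dose response: 5 concentrations. Exposure: 48 h. Format: 96-well plates. Endpoint: linear interpolation; highest concentration if not reached. The concentration for 50% growth inhibition is given as GI50.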 Active and inactive are the calls of the source. Cut-off read from the data, not from the text of the source: active = GI50 up to about 1.1 µM and inactive = higher.

Columns and labels:
Assay in all cases: NCI anticancer screen, dose series, 48 h
NCI-H522 = tested on: NCI-H522
PC-3 = tested on: PC-3
MDA-MB-231 = tested on: MDA-MB-231
786-0 = tested on: 786-0
COLO 205 = tested on: COLO 205
SW-620 = tested on: SW-620
HT-29 = tested on: HT-29
NCI-H460 = tested on: NCI-H460
OVCAR-8 = tested on: OVCAR-8
SK-MEL-5 = tested on: SK-MEL-5
SNB-75 = tested on: SNB-75
MDA-N = tested on: MDA-N
MOLT-4 = tested on: MOLT-4
SK-MEL-2 = tested on: SK-MEL-2
BT-549 = tested on: BT-549
CAKI-1 = tested on: CAKI-1
UACC-62 = tested on: UACC-62
SK-MEL-28 = tested on: SK-MEL-28
M14 = tested on: M14
HCT-15 = tested on: HCT-15

SMILES	GI50 (NCI-H522)	GI50 (PC-3)	GI50 (MDA-MB-231)	GI50 (786-0)	GI50 (COLO 205)	GI50 (SW-620)	GI50 (HT-29)	GI50 (NCI-H460)	GI50 (OVCAR-8)	GI50 (SK-MEL-5)	GI50 (SNB-75)	GI50 (MDA-N)	GI50 (MOLT-4)	GI50 (SK-MEL-2)	GI50 (BT-549)	GI50 (CAKI-1)	GI50 (UACC-62)	GI50 (SK-MEL-28)	GI50 (M14)	GI50 (HCT-15)
CN(C)c1ncnc2c1ncn2CCn1cnc2c(N(C)C)ncnc21	> 100 µM (inactive)	> 100 µM (inactive)	> 100 µM (inactive)	> 100 µM (inactive)	> 100 µM (inactive)	> 100 µM (inactive)	> 100 µM (inactive)	> 100 µM (inactive)	> 100 µM (inactive)	> 100 µM (inactive)	> 100 µM (inactive)	> 100 µM (inactive)	< 0.01 µM (active)	> 100 µM (inactive)	> 100 µM (inactive)	> 100 µM (inactive)	> 100 µM (inactive)	> 100 µM (inactive)	> 100 µM (inactive)	> 100 µM
C=C(Cl)COC(=O)Nc1cccc(Cl)c1	25.1 µM (inactive)	29 µM (inactive)	40.4 µM (inactive)	27.4 µM (inactive)	31.7 µM (inactive)	39.3 µM (inactive)	33.3 µM (inactive)	32.6 µM (inactive)	32.6 µM (inactive)	18 µM (inactive)	26.4 µM (inactive)	34.2 µM (inactive)	57.5 µM (inactive)	22.5 µM (inactive)	26.7 µM (inactive)	31.9 µM (inactive)	20.6 µM (inactive)	42.1 µM (inactive)	35.4 µM (inactive)	28.6 µM
CN(C(=O)c1ccc(Cl)s1)C(=S)N(C)C(=O)c1ccc(Cl)s1	> 10 µM (inactive)	> 10 µM (inactive)	> 10 µM (inactive)	> 10 µM (inactive)	> 10 µM (inactive)	> 10 µM (inactive)	> 10 µM (inactive)	> 10 µM (inactive)	> 10 µM (inactive)	> 10 µM (inactive)	> 10 µM (inactive)	> 10 µM (inactive)	> 10 µM (inactive)	> 10 µM (inactive)	> 10 µM (inactive)	> 10 µM (inactive)	> 10 µM (inactive)	> 10 µM (inactive)	> 10 µM (inactive)	> 10 µM
CCCCCC1=C2C(c3ccc(OC)cc3)=C(N)C(c3ccc(OC)cc3)=C3NC(=O)C(C=C1)C32 (stereo not given)	22.4 µM (inactive)	27.7 µM (inactive)	> 100 µM (inactive)	25 µM (inactive)	32.1 µM (inactive)	49.2 µM (inactive)	> 100 µM (inactive)	28.1 µM (inactive)	30.3 µM (inactive)	> 100 µM (inactive)	32.8 µM (inactive)	61.4 µM (inactive)	56.4 µM (inactive)	> 100 µM (inactive)	96.4 µM (inactive)	36 µM (inactive)	53.1 µM (inactive)	> 100 µM (inactive)	59.7 µM (inactive)	> 100 µM
c1ccc(C2C3=C(CCCC3)Nc3nc4cc5ccccc5cc4n32)cc1 (stereo not given)	> 100 µM (inactive)	> 100 µM (inactive)	> 100 µM (inactive)	> 100 µM (inactive)	> 100 µM (inactive)	> 100 µM (inactive)	> 100 µM (inactive)	> 100 µM (inactive)	> 100 µM (inactive)	> 100 µM (inactive)	> 100 µM (inactive)	> 100 µM (inactive)	> 100 µM (inactive)	> 100 µM (inactive)	> 100 µM (inactive)	> 100 µM (inactive)	> 100 µM (inactive)	> 100 µM (inactive)	> 100 µM (inactive)	> 100 µM
COC1=CC2(C=CC1=O)CCNC1=C2C(=O)c2nc[nH]c2C1=O (stereo not given)	32.3 µM (inactive)	> 100 µM (inactive)	> 100 µM (inactive)	> 100 µM (inactive)	> 100 µM (inactive)	> 100 µM (inactive)	> 100 µM (inactive)	> 100 µM (inactive)	> 100 µM (inactive)	> 100 µM (inactive)	> 100 µM (inactive)	> 100 µM (inactive)	> 100 µM (inactive)	> 100 µM (inactive)	> 100 µM (inactive)	> 100 µM (inactive)	> 100 µM (inactive)	> 100 µM (inactive)	> 100 µM (inactive)	> 100 µM
